Test results from PMC10988762, “Inhibition of malaria and babesiosis parasites by putative red blood cell targeting small molecules” (Frontiers in Cellular and Infection Microbiology, 2024).
Like-named read-outs stand apart in the source and are kept apart here. Marks after values point to notes of the source that are not given here.

What was measured:
[1] = test system: P. falciparum strain 3D7; assay: Inhibitor susceptibility dose-response assay (SYBR-Green I), P. falciparum 3D7; type: cell-based, Plasmodium falciparum; conditions: Plasmodium falciparum, read-out: IC50 (S.D.), P. falciparum-3D7
Protocol: (§1) The P. falciparum strains 3D7 and Dd2 were obtained from the Walter and Eliza Hall Institute (Melbourne, Australia) and the Malaria Research and Reference Reagent Resource, respectively. […] B. divergens parasites were maintained and assayed in mixed stages without synchronization.
(§2) Ring-stage P. falciparum (1%-parasitemia starting, 1%-hematocrit) and asynchronous B.divergens (0.5%-parasitemia starting, 3%-hematocrit) were incubated with plated compounds for 72h, and ring-stage P. knowlesi (1%-parasitemia starting, 1%-hematocrit) for 48h, before lysis and staining with dye. To quantify the species-specificity of the inhibitors, we divided the range of IC50s across the 4 test lines by the average IC50 across the same lines: inhibitors with increased scores show species-specific activity and reduced scores indicate broad-spectrum, pan-species activity.

[2] = test system: P. falciparum strain Dd2; assay: Inhibitor susceptibility dose-response assay (SYBR-Green I), P. falciparum Dd2; type: cell-based, Plasmodium falciparum; conditions: Plasmodium falciparum, read-out: IC50 (S.D.), P. falciparum-Dd2
Protocol: as §1, §2

[3] = test system: P. knowlesi YH1 strain; assay: microbe, parasite or virus in culture; type: cell-based, Plasmodium knowlesi; conditions: Plasmodium knowlesi, 48 h, read-out: IC50 (S.D.), P. knowlesi
Protocol: as §1, §2

[4] = test system: BdC9 line of B. divergens; assay: Inhibitor susceptibility dose-response assay (SYBR-Green I), B. divergens; type: cell-based, Babesia divergens; conditions: for IC50: Babesia divergens, read-out: IC50 (S.D.), B. divergens; for fold higher doses required for 50% inhibition of B. divergens than of the Plasmodium spp. lines: B. divergens vs Plasmodium spp. lines
Protocol: as §1, §2

[5] = test system: uninfected RBCs; conditions: 5x P. falciparum 3D7-IC50; 24, 48, 72h
Text: (§3) We analyzed samples using a volumetric MACSQuant Analyzer Flow Cytometer (Miltenyi Biotec), manually resuspending each row immediately prior to sample uptake. We recorded 10,000 total events for each condition at the instrument-defined low flow rate. We assessed all compounds in 2 separate experiments with blood from different donors. […] All samples were gated for single cell events.

[6] = test system: breast cancer cell line panel; parameters: method as in PMID 21159648; conditions: cellular proliferation ref PMID 21159648; read-out: Micromolar IC50 (breast cancer cell line panel); cited from earlier work
[7] = in vitro; conditions: human
Text: as §3

[8] = test system: uninfected RBCs; assay: Cellular phosphatidylserine exposure assay (annexin V flow cytometry);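 on all read-outs here: flow cytometry recording 10,000 events per condition, gated on single cells, with the two experiments using blood from separate donors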; conditions: for PS exposure on RBCs, in words: 5x P. falciparum 3D7-IC50, 24, 48, 72h
Text: as §3

[9] = test system: Plasmodium spp. lines; assay: Inhibitor susceptibility assays, summary over the Plasmodium spp. lines; type: cell-based; conditions: for IC50: approximate value given in text for the Plasmodium spp. lines, read-out: IC50 against the Plasmodium spp. lines; for antiparasitic activity in vitro, in words, Plasmodium spp.: Plasmodium spp. parasites
Text: The P. falciparum strains 3D7 and Dd2 were obtained from the Walter and Eliza Hall Institute (Melbourne, Australia) and the Malaria Research and Reference Reagent Resource, respectively. The P. knowlesi YH1 strain adapted for growth in human erythrocytes and the BdC9 line of B. divergens were previously reported ([Lim et al., 2013]; [Rezvani et al., 2022]). All parasite lines were maintained in continuous culture in human erythrocytes O+ purchased from a commercial source (Research Blood Components, Boston USA) in RPMI-1640 medium as described (eg [Rezvani et al., 2022]), typically at 2%-hematocrit. Plasmodium parasites were synchronized using sorbitol (5% [wt/vol] for both P. falciparum and P. knowlesi; for P. knowlesi, with addition of 20 mM Na-HEPES and 0.1 mg/ml BSA) ([Lambros and Vanderberg, 1979]) at least once in the week prior to assays. B. divergens parasites were maintained and assayed in mixed stages without synchronization.
as §2, with “We carried out dose-response assays in 384-well plates (40 µl assay volume) for measurement with SYBR-Green I dye ([Mandt et al., 2019]), with test compounds pre-printed into wells via use of a D300 Digital Dispenser (Hewlett-Packard). Ring-stage” for “Ring-stage”

[10] = test system: SW1990; parameters: method as in PMID 27487486; conditions: cellular proliferation ref PMID 27487486; read-out: Micromolar IC50 (SW1990); cited from earlier work
[11] = experimental logP ref https://go.drugbank.com/drugs/DB08865; cited from earlier work
[12] = test system: H2228; parameters: method as in PMID 30333870; conditions: cellular proliferation ref PMID 30333870; read-out: Micromolar IC50 (H2228); cited from earlier work
[13] = test system: serum- or growth factor induced fibroblasts; parameters: method as in PMID 8519682; conditions: cellular proliferation ref PMID 8519682; read-out: Micromolar IC50 (serum- or growth factor induced fibroblasts); cited from earlier work
[14] = test system: P. falciparum (3D7); assay: Assay for inhibition of parasite proliferation via RBC-targeting (transient exposure of RBCs, wash, then infection); type: cell-based, Plasmodium falciparum; conditions: transient vs continued exposure; dose-response format where stated, n=3
Protocol: All plates were frozen for storage before assay. For assay, duplicate plates were preincubated with donor O+ RBCs at 2% hematocrit at 37°C in 50µL for 4-5 hours. Following preincubation, one but not the other plate in each pair was washed 4X in complete RPMI to dilute inhibitor. We transferred RBCs from both washed and unwashed plates to black, clear bottom 96-well plates (Corning Cat. No. 3904) and supplemented these suspensions with MACS-purified P. falciparum (3D7) schizonts for a starting parasitemia of 0.1% - 0.25% at 1% hematocrit. Following 72h incubation in standard culture conditions, samples were processed for SYBR-Green I signal ([Mandt et al., 2019]). […] To identify host-targeting compounds, we compared DMSO-treated to inhibitor-treated samples (Students t-test, paired). We carried out the assay with 1 µM mefloquine (Sigma-Aldrich Cat. No. M2319) as a control for reversible inhibition. All assays were conducted in biological triplicate, with each experiment utilizing different donor RBCs. For select compounds, we carried out this same assay in a dose-response series (n=3 experiments). Following normalization to DMSO-controls, we assessed inhibitor activity following transient exposure of RBCs by Two-Way ANOVA tests for repeated measures (Graphpad Prism v9): high P values indicate support for the null hypothesis that dose-dependent inhibition is not modulated by dilution after exposure, consistent with a direct inhibitory effect of the compounds on RBCs persisting after transient exposure.

[15] = test system: P. falciparum 3D7; assay: Co-administration with established antimalarials, IC50 shift; type: cell-based, Plasmodium falciparum; conditions: P<0.05
Text: Our experimental compound set is weighted toward kinase inhibitors, reflecting the high degree of small molecule development in this target space.

[16] = test system: Plasmodium berghei; parameters: method as in Wu et al., 2017; conditions: mouse model of severe malaria with Plasmodium berghei ref Wu et al., 2017; cited from earlier work
[17] = test system: MEF; parameters: method as in PMID 29336889; conditions: cellular proliferation ref PMID 29336889; read-out: Micromolar IC50 (MEF); cited from earlier work
[18] = 3D7, 72h, ring-stage, n=3 experiments (or 2 where indicated with *)
[19] = DD2, 72h, ring-stage, n=3 experiments (or 2 where indicated with *)
[20] = 72h, asynchronous, n=3 experiments (or 2 where indicated with *)
[21] = 24h, 5x P. falciparum 3D7-IC50, % of RBCs, mean of 2 experiments
[22] = 5x P. falciparum 3D7-IC50, % of RBCs, mean of 2 experiments
[23] = uninfected RBCs (red blood cells), 1% hematocrit
[24] = 72h, 5x P. falciparum 3D7-IC50, % of RBCs, mean of 2 experiments

Compound	IC50 [1, 18]	IC50 [2, 19]	IC50 [3]	IC50 [4, 20]	hemolysis of RBCs, in words [5]	hemolysis at 24 h, 5 x P. falciparum 3D7-IC50 [7]	hemolysis at 48 h, 5 x P. falciparum 3D7-IC50 [7]	hemolysis at 72 h, 5 x P. falciparum 3D7-IC50 [7]	Phosphatidylserine exposure (%) 72h [8]	PS exposure on RBCs, in words [8]	Phosphatidylserine exposure (%) 24h [8, 21]	Phosphatidylserine exposure (%) 48h [8, 22]	IC50 ([1]; 3D7, 72 h)	IC50 ([2]; DD2, 72 h)	fold higher doses required for 50% inhibition of B. divergens than of the Plasmodium spp. lines [4]	IC50 ([4]; 72 h)	hemolysis at 24 h, 5 x P. falciparum 3D7-IC50 [7, 23]	hemolysis at 48 h, 5 x P. falciparum 3D7-IC50 [7, 23]	hemolysis at 72 h, 5 x P. falciparum 3D7-IC50 [7, 23]	Phosphatidylserine exposure (%) 72h [8, 24]	also measured
O=C(O)c1ccc2c(c1)nc(Nc1cccc(Cl)c1)c1ccncc12 [CX-4945]	9000 nM	6000 nM	9000 nM	10000 nM	similarly low levels	-4%	-1%	16%	3%	similarly low levels	2%	2%									IC50 [6]: 1700 to 20000 nM
CCCC[C@@H](C=O)NC(=O)[C@H](CC(C)C)NC(=O)OCc1ccccc1 [Calpeptin]			900 nM								2%	2%	1000 nM	1300 nM	> 30 fold	40000 nM	0%	8%	17%	5%	IC50 [9]: ~1000 nM; IC50 [10]: 74200 nM
C[C@@H](Oc1cc(-c2cnn(C3CCNCC3)c2)cnc1N)c1c(Cl)ccc(F)c1Cl [Crizotinib]			800 nM			1%	9%	14%	5%			2%	700 nM	140 nM		3000 nM					antiparasitic activity in vitro, in words, B. divergens [4]: single-digit micromolar activity; antiparasitic activity in vitro, in words, Plasmodium spp. [9]: potent submicromolar activity; logP (octanol-water partition coefficient), experimental [11]: Crizotinib [drawing 15] (450.3; 1.83^2); IC50 [12]: 311 nM; Phosphatidylserine exposure (%) 24h [8]: 1%
COc1ccc(S(=O)(=O)N(CCO)c2ccccc2CN(C)C/C=C/c2ccc(Cl)cc2)cc1 [KN-93 Phosphate]			5000 nM								2%	2%	3900 nM	3000 nM		6000 nM	-4%	7%	16%	4%	IC50 [13]: 6000 to 12000 nM
CC(=O)Nc1cccc(-n2c(=O)n(C3CC3)c(=O)c3c(Nc4ccc(I)cc4F)n(C)c(=O)c(C)c32)c1 [Trametinib]	90 nM	110 nM	100 nM	6000 nM	similarly low levels					similarly low levels	2%	2%			> 30 fold		-1%	7%	15%	5%	antiparasitic activity in vitro, in words, B. divergens [4]: single-digit micromolar activity; antiparasitic activity in vitro, in words, Plasmodium spp. [9]: potent submicromolar activity; IC50 [9]: ~100 nM; inhibitory activity following transient exposure of RBCs, in words [14]: does not persist beyond transient exposure; reduction in the IC50 of chloroquine in combination with fixed, sublethal dose of test compound [15]: ≤ 2 fold; reduction in the IC50 of mefloquine in combination with fixed, sublethal dose of test compound [15]: ≤ 2 fold; survival of infected mice [16]: improve survival of infected mice; IC50 [17]: 1.6 to 4.8 nM
